According to ChEMBL document CHEMBL1147885, “A novel noninvasive method for assessing glutathione-conjugate efflux systems in the brain” (Bioorg Med Chem, 2007):

Assays:
Type in all cases: ADME, organism-based
Brain [1] = assay: Metabolic stability in intravenously dosed Wistar rat brain assessed as radioactivity remained in unchanged form after 15 mins by TLC; conditions: in vivo, iv, 0.25 h
Brain [2] = assay: Metabolic stability in intravenously dosed Wistar rat brain assessed as metabolite level after 15 mins by HPLC; conditions: in vivo, iv, 0.25 h
Brain [3] = assay: Metabolic stability in intravenously dosed Wistar rat brain assessed as metabolite level after 60 mins by HPLC; conditions: in vivo, iv, 1 h

Measured: Stability

[14CH3]n1cnc2ncnc(Cl)c21
80%: all assays above
